Assay [1] concerns the target T1, Tie2 receptor tyrosine kinase (Homo sapiens, UniProt Q02763).
T1 construct: consist of only the intracellular portion C-terminal portion of the respective receptor, within which is found the kinase domain; made in house; host or cells: baculovirus/Sf21 insect cells (or alternative equivalent); used as cleared cell lysate
Nature of the assay: In vitro receptor tyrosine kinase inhibition assay (Test (a)), ELISA based. The format is biochemical. The settings on record: recombinant human Tie2 kinase domain. As for the experimental part:
a. In Vitro Receptor Tyrosine Kinase Inhibition Assay
To test for inhibition of Tie2 receptor tyrosine kinase, compounds are evaluated in a non-cell based protein kinase assay by their ability to inhibit the protein kinase enzyme phosphorylation of a tyrosine containing polypeptide substrate in an ELISA based microtitre plate assay. In this particular case, the assay was to determine the IC50, for three different recombinant human tyrosine kinases Tie2, KDR and Flt.
To facilitate production of the tyrosine kinases, recombinant receptor genes were produced using standard molecular biology cloning and mutagenesis techniques. These recombinant proteins fragments encoded within these genes consist of only the intracellular portion C-terminal portion of the respective receptor, within which is found the kinase domain. The recombinant genes encoding the kinase domain containing fragments were cloned and expressed in standard baculovirus/Sf21 system (or alternative equivalent) […]
Constitutive kinase activity of these recombinant proteins was determined by their ability to phosphorylate a synthetic peptide (made up of a random co-polymer of Glutamic Acid, Alanine and Tyrosine in the ratio of 6:3:1). […]
The immobilised phospho-peptide product of the reaction was detected by immunological methods. […] Following extensive washing with PBS-T, HRP activity in each well of the plate was measured colorimetrically using 22′-Azino-di-[3-ethylbenzthiazoline sulfonate (6)]diammonium salt crystals ABTS (Sigma P4922—prepared as per manufactures instructions) as a substrate incubated for 30-45 minutes to allow colour development, before 100 ul of 1M H2SO4 was added to stop the reaction.
Quantification of colour development and thus enzyme activity was achieved by the measurement of absorbance at 405 nm on a Molecular Devices ThermoMax microplate reader. Kinase inhibition for a given compound was expressed as an IC50 value. […] The range of phosphorylation was calculated from the positive (vehicle plus ATP) and negative (vehicle minus ATP) control values.
(In an ELISA, binding on a coated surface is turned into a signal by an enzyme label.)

The target in the next assay is T2, Tie2 receptor (Homo sapiens, UniProt Q02763).
T2 construct: natural cell lines or primary cells which are known to express the receptor of choice; endogenous in cells; host or cells: EA.hy926/B3 cells (HUVEC named as an alternative)
Nature of the assay: Cellular Tie2 autophosphorylation assay (Test (b)). The format is cell-based. The settings on record: Ang1 ligand stimulated whole cells, e.g. EA.hy926/B3; read-out: IC50 (μM) Test (b): Inhibition of autophosphorylation of Tie2 receptor tyrosine kinase. From the text: b. Cellular Tie2 Autophosphorylation Assay
This assay is based on measuring the ability of compounds to inhibit autophosphorylation of the Tie2 receptor which normally leads to the production of “activated” receptor that in turn initiates the particular signal transduction pathways associated with the receptor function.
Autophosphorylation can be achieved by a number of means. It is known that expression of recombinant kinase domains in baculoviral systems can lead to the production of phosphorylated and activated receptor. It is also reported that over expression of receptors in recombinant cell lines can itself lead to receptor autophosphorylation in the absence of the ligand (Heldin C-H. 1995 Cell: 80, 213-223; Blume-J. P, Hunter T. 2001 Nature: 411, 355-65). Furthermore, there are numerous literature examples in which chimaeric receptors have been constructed. In these cases the natural, external cell surface domain of the receptor has been replaced with that of a domain which is known to be readily dimerised via the addition of the appropriate ligand (e.g. TrkA-Tie2/NGF ligand (Marron, M. B., et al., 2000 Journal of Biological Chemistry: 275:39741-39746) or C-fins-Tie-1/CSF-1 ligand (Kontos, C. D., et al., 2002 Molecular and Cellular Biology: 22, 1704-1713). Thus when the chimaeric receptor expressed in a host cell line and the respective ligand is added, this induces autophosphorylation of the chimeric receptor's kinase domain. This approach has the advantage of often allowing a known (and often easily obtained) ligand to be used instead of having to identify and isolate the natural ligand for each receptor of interest.
Naturally if the ligand is available one can use natural cell lines or primary cells which are known to express the receptor of choice and simply stimulate with ligand to achieve ligand induced phosphorylation. […]

SMILES strings stand for the structures.

As usually defined, the IC50 is the concentration that gives 50% inhibition.

T2 sequence (Q02763 23-1124): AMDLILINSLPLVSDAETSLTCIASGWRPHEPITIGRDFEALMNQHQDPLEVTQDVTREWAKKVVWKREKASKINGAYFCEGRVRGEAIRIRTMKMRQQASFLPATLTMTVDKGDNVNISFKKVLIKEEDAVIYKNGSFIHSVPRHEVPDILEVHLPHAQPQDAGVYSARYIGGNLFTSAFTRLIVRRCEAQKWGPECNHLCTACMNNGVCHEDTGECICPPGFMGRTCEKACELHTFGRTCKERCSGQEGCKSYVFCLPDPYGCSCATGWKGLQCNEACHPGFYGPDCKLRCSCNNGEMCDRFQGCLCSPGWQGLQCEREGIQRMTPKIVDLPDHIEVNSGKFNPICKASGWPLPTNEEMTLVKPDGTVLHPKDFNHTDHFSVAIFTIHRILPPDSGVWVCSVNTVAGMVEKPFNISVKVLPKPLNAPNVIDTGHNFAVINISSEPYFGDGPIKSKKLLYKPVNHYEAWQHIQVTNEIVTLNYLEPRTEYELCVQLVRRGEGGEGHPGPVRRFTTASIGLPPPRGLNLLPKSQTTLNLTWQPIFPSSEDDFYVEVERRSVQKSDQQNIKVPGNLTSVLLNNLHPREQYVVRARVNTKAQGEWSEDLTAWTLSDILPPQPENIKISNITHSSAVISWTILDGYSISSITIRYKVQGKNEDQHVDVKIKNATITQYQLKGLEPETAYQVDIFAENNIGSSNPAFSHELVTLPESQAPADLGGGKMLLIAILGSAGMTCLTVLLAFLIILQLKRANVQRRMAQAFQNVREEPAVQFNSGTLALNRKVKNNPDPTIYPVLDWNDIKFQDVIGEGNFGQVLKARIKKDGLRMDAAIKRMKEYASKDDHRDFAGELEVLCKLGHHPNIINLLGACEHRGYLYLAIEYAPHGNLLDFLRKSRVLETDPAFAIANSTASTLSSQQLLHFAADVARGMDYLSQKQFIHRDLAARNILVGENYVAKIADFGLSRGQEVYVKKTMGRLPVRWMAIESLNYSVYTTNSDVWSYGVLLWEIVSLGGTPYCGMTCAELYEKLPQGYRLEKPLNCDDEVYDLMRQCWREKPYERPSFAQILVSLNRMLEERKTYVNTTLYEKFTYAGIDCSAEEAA
T1 sequence (Q02763 770-1124 limits assumed): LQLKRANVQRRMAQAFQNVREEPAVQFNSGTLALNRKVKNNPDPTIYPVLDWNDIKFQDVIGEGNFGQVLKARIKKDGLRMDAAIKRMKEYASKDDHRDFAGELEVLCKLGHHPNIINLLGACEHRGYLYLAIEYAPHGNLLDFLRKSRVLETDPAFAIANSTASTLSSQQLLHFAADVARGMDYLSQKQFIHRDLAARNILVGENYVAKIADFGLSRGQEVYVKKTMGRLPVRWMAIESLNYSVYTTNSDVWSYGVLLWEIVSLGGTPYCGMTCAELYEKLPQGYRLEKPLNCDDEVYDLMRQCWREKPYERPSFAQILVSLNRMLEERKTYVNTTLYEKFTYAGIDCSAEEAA

Take `Cc1cc(NC(=O)Nc2cccc(C#Cc3cnc(N)nc3)c2)on1` [Example 19, N-{3-[(2-aminopyrimidin-5-yl)ethynyl]phenyl}-N′-(3-methylisoxazol-5-yl)urea]: the IC50 was 19.9 µM in assay [1] and 0.337 µM on Tie2 receptor.
For `CC(C)(C)c1cc(NC(=O)Nc2cccc(C#Cc3cnc(NCCN4CCCC4)nc3)c2)no1` [Example 33, N-(5-tert-butylisoxazol-3-yl)-N′-[3-({2-[(2-pyrrolidin-1-ylethyl)amino]pyrimidin-5-yl}ethynyl)phenyl]urea] the same measures were 5.7 µM and 2.59 µM.
For `CC(C)(C)c1nnc(NC(=O)Nc2cccc(C#Cc3cnc(NCCN4CCCC4)nc3)c2)s1` [Example 48, N-(5-tert-butyl-1,3,4-thiadiazol-2-yl)-N′-[3-({2-[(2-pyrrolidin-1-ylethyl)amino]pyrimidin-5-yl}ethynyl)phenyl]urea] the same measures were 74.9 µM and 3.29 µM.
